By IC50 is commonly meant the point on the concentration scale where inhibition reaches its midpoint. Higher therefore signals lower potency.

Data on three compounds can be found in PMC6269904, “Two New Monoterpene Glycosides from Qing Shan Lu Shui Tea with Inhibitory Effects on Leukocyte-Type 12-Lipoxygenase Activity” (Molecules, 2013).

The target of experiment [1] is T1, leukocyte-type 12-lipoxygenase (leukocyte-type 12-LOX), porcine (Sus scrofa, UniProt P16469).
T1 construct: gene ALOX15; partially purified from J774A.1 cells overexpressing the porcine enzyme
T1 sequence (P16469 1-663): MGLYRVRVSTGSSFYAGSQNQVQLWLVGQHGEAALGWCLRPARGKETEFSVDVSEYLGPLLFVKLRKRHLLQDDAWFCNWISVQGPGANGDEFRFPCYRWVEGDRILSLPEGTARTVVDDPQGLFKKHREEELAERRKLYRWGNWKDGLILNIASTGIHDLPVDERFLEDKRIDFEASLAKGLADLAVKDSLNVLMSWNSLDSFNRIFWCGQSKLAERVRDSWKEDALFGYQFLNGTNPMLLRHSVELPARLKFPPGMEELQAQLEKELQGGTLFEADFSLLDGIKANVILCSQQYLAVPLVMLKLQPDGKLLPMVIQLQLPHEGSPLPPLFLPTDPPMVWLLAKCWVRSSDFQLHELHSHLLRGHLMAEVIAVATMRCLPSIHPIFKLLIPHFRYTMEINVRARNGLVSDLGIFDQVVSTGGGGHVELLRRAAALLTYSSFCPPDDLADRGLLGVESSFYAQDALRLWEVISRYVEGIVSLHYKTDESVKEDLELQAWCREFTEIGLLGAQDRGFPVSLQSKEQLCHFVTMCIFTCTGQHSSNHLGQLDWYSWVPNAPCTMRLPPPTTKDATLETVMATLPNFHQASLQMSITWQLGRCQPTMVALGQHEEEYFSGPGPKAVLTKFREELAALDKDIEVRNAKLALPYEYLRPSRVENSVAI
Description: RP-HPLC of HETE products after reduction. It is filed as biochemical.

The target of experiment [2] is T1, leukocyte-type 12-lipoxygenase (leukocyte-type 12-LOX), porcine. Description: RP-HPLC of HETE products ([…] nm) after reduction. It is filed as biochemical. To be noted: 25 μM arachidonic acid, 100 mM Tris-HCl pH 7.4, 30 °C, 5 min preincubation; partially purified enzyme.

Molecules are shown by their SMILES.

Consider `C/C(=C\CO[C@@H]1O[C@H](CO)[C@@H](OC(=O)/C=C/c2ccc(O)cc2)[C@H](O[C@@H]2O[C@@H](C)[C@H](O)[C@@H](O)[C@H]2O)[C@H]1O)C/C=C/C(C)(C)OO` [compound 1, (2E,5E)-7-hydroperoxy-3,7-dimethyl-2,5-octadienyl-O-(α-L-rhamnopyranosyl)-(1″→3′)-(4′″-O-trans-p-coumaroyl)-β-D-glucopyranoside], for which half-maximal inhibition in experiment [1] (IC50) was put at 1700 nM.

Regarding `C/C(=C\CO[C@@H]1O[C@H](CO)[C@@H](OC(=O)/C=C\c2ccc(O)cc2)[C@H](O[C@@H]2O[C@@H](C)[C@H](O)[C@@H](O)[C@H]2O)[C@H]1O)C/C=C/C(C)(C)OO` [compound 2, (2E,5E)-7-hydroperoxy-3,7-dimethyl-2,5-octadienyl-O-(α-L-rhamnopyranosyl)-(1′′→3′)-(4′′′-O-cis-p-coumaroyl)-β-D-glucopyranoside], inhibition in experiment [1] was half-maximal at 700 nM (IC50).

Turning to `O=C(O)/C=C/c1ccc(O)cc1` [p-coumaric acid], in experiment [2], the no inhibition entry is on record as “showed no inhibition on leukocyte-type 12-LOX activity”.
